What all share (format): biochemical
One assay has as its target rnADAMTS-5 (1-564-6H) (Rattus norvegicus (Rat), UniProt Q6TY19). Kind of assay: Rat ADAMTS-5 TBIS-1 substrate cleavage assay. The conditions noted are these: rnADAMTS-5, TBIS-1 substrate, 120 min at 37° C.; read-out: Rat ADAMTS-5 potency IC50. The procedure: The basis for the assay is the cleavage of the substrate TBIS-1 (5 FAM-[…] (5TAMRA)K-NH2) (SEQ ID NO: 2) by rnADAMTS-5 (1-564-6H).
(§1) The reaction is initiated by adding to the assay plate TBIS-1 (10 μL, 4.5 μM, Anaspec) in the same buffer.
Finally, the fluorescence is read on the Envision (Perkin Elmer) after an incubation of 120 min at 37° C. (Excitation 485 nm, emission 535).

The next assay addresses human ADAMTS-5 (Homo sapiens (Human), UniProt Q9UNA0). Kind of assay: hADAMTS-5 TBIS-1 cleavage assay, Protocol 2. The note with it: Protocol 2, TBIS-1 substrate, 45 min at 37° C.; read-out: hADAMTS-5 potency IC50. The procedure: The basis for the assay is the cleavage of the substrate TBIS-1 (5 FAM-[…] (5TAMRA)K-NH2) (SEQ ID NO: 2) by human ADAMTS-5.
as §1
Finally, the fluorescence is read on the Envision (Perkin Elmer) after an incubation of 45 min at 37° C. (Excitation 485 nm, emission 530).

A further assay has as its target human ADAMTS6 (Homo sapiens (Human), UniProt Q9UKP5). Kind of assay: hADAMTS-6 520 MMP FRET substrate XII cleavage assay. The note with it: 37° C. for 2 h, read-out: hADAMTS-6 potency IC50. In short, it runs like this: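 FRET cleavage of 520 MMP Substrate XII (Arg-Pro-Lys-Pro-Tyr-Ala-Nva-Trp-Met-Lys) by 0.73 nM enzyme in 25 mM Tris pH8.0, 0.05% CHAPS, 2.5 mM CaCl2. Compound dilution series from 20 μM top, 1/5 steps; substrate added from 1 μM stock, 2 h at 37° C. Fluorescence read at exc485/em530 for IC50.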

The target in the next assay is human TACE (Homo sapiens (Human), UniProt P78536). Kind of assay: hTACE 5FAM-[…]-5TAMRA cleavage assay. The conditions noted are these: 5FAM-LAQAVRSSSRK-5TAMRA, 75 min at room temperature; read-out: hTACE potency IC50. The procedure:
Finally, the fluorescence is read on the Envision (Perkin Elmer) after an incubation of 75 min at room temperature (Excitation 485 nm, Emission 530).

The next assay addresses human MMP13 (Homo sapiens (Human), UniProt P45452). Kind of assay: hMMP13 390 MMP FRET Substrate I cleavage assay, Protocol 1. The conditions noted are these: Protocol 1, 390 MMP FRET Substrate I; read-out: hMMP-13 potency IC50. The procedure, abridged:
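Human MMP13 was preactivated with 1 mM p-aminophenylmercuric acetate for 1 h at 37° C. Cleavage of 390 MMP FRET Substrate I (2.5 μM as added) ran 45 min at room temperature, with fluorescence read at 485 nm excitation and 530 nm emission.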

Chain of human TACE (P78536 215-671): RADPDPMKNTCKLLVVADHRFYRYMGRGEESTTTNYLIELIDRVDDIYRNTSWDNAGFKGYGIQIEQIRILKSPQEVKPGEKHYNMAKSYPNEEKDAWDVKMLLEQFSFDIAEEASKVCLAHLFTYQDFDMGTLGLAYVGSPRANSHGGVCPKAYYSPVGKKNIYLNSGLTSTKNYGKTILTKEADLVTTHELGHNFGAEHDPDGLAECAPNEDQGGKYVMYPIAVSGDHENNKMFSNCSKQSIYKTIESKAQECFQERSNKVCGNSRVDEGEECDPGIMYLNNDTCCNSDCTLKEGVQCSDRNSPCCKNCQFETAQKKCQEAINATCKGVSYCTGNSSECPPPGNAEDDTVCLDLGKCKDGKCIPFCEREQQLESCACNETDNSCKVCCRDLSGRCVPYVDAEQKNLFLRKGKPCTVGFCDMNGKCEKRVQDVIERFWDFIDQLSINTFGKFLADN
Chain of human ADAMTS-5 (Q9UNA0 262-930): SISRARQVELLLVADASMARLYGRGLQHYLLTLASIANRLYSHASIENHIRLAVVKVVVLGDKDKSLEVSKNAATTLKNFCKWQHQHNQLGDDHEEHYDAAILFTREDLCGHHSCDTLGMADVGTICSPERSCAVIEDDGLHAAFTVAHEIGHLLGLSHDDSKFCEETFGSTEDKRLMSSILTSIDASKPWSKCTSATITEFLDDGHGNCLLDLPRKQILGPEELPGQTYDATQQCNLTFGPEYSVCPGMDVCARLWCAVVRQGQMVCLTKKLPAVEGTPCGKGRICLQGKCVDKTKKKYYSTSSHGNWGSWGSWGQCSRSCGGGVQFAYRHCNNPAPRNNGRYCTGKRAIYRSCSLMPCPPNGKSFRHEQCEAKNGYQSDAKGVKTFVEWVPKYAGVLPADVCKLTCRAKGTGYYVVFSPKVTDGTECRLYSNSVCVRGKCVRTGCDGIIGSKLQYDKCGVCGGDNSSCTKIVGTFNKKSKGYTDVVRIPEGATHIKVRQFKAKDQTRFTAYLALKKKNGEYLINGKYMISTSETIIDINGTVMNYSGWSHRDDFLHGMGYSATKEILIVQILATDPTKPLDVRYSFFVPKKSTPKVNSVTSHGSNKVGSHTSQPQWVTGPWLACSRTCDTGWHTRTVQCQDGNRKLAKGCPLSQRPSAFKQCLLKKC
Chain of human ADAMTS6 (Q9UKP5 other isoform, or with tags, fused parts or gaps): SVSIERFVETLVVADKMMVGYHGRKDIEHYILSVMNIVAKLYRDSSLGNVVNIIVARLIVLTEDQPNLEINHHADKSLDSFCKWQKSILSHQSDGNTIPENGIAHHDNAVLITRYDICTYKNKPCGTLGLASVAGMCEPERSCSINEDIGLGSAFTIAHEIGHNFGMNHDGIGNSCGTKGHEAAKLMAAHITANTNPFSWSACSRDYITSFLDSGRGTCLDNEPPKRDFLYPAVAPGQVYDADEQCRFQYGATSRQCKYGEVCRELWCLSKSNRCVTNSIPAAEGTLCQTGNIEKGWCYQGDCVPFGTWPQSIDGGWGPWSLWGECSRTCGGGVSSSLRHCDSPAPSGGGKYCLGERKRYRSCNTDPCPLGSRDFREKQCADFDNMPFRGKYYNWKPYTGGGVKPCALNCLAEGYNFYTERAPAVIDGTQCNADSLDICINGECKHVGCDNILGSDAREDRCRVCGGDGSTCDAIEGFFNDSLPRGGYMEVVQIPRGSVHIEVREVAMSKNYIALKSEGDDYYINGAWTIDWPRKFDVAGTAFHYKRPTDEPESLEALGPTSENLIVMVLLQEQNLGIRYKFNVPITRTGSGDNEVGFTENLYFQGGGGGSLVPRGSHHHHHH
Chain of rnADAMTS-5 (1-564-6H) (Q6TY19 entry or part of it): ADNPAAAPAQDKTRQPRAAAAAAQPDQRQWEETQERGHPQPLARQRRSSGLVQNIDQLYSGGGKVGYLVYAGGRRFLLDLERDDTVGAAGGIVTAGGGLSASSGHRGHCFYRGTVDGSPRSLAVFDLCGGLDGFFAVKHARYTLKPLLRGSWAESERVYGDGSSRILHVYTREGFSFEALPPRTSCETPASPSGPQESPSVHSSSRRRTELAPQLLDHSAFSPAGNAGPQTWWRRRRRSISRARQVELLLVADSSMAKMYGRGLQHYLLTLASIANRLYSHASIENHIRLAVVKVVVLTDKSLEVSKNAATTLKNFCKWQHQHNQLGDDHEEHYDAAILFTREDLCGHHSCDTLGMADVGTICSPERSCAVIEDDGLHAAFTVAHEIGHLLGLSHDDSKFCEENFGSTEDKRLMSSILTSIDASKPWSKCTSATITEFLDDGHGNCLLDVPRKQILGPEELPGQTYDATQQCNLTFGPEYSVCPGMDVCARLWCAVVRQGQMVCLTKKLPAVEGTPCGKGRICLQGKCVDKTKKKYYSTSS

Broadly, the IC50 is the point on the concentration scale where inhibition reaches its midpoint. Turning to `O=C1NC(=O)C(CCC(=O)N2CCC(c3ccccc3)CC2)(C2CC2)N1` (stereo not shown) [Cpd 7, 5-cyclopropyl-5-(3-oxo-3-(4-phenylpiperidin-1-yl)propyl) imidazolidine-2,4-dione], the IC50 is 50 to 100 nM on rnADAMTS-5 (1-564-6H); 50 to 100 nM at human ADAMTS-5; more than 100 nM on human ADAMTS6; more than 100 nM at human TACE; more than 100 nM at human MMP13.
`CC1(CCC(=O)N2CCC(c3cc(Cl)cc(Cl)c3)CC2)NC(=O)NC1=O` (stereo not shown) [Cpd 9, 5-(3-(4-(3,5-dichlorophenyl)piperidin-1-yl)-3-oxopropyl)-5-methyl-imidazolidine-2,4-dione]: the IC50 on rnADAMTS-5 (1-564-6H) was more than 100 nM; at human ADAMTS-5 it was 50 to 100 nM; on human ADAMTS6, 25 to 50 nM; on human TACE it was more than 100 nM; at human MMP13 it was more than 100 nM.
On to `O=C1NC(=O)C(CCC(=O)N2CCC(c3ccccc3)CC2)(c2ccccc2)N1` (stereo not shown) [Cpd 3, 5-(3-oxo-3-(4-phenylpiperidin-1-yl)propyl)-5-phenyl imidazolidine-2,4-dione], for which the IC50 is 50 to 100 nM at rnADAMTS-5 (1-564-6H), 50 to 100 nM on human ADAMTS-5, more than 100 nM on human ADAMTS6 and more than 100 nM on human TACE.
Turning to `O=C1NC(=O)C(CCC(=O)N2CCC(c3ccccc3)CC2)(c2cccnc2)N1` (stereo not shown) [Cpd 16, 5-(3-oxo-3-(4-phenyl-piperidin-1-yl)propyl)-5-(pyridin-3-yl)imidazolidine-2,4-dione], the IC50 on rnADAMTS-5 (1-564-6H) is 50 to 100 nM; on human ADAMTS-5, 50 to 100 nM; at human ADAMTS6 it was more than 100 nM; at human TACE it was more than 100 nM; at human MMP13 it was more than 100 nM.

These data come from US10550100B2, “5-[3-[piperzin-1-yl]-3-oxo-propyl]-imidazolidine-2,4-dione derivatives as ADAMTS 4 and 5 inhibitors for treating E.G. osteoarthritis” (GALAPAGOS NV, priority 2016, dated 2020).
